Each structure is given as a SMILES string. In brackets after ≈: the same amount, converted by molar mass.

A word on the MIC: it is the smallest concentration in the dilution series that meets the test's criterion for growth inhibition.

The subject of data set [1] is E. coli 25922. The data set can be described thus: MIC assay, liquid medium microdilution (planktonic growth). The data set is classed as cell-based, Escherichia coli. The conditions noted are these: Escherichia coli; E. coli 25922, 24 h at 37 °C; read-out: MIC. On the procedure:
(§1) The antibacterial assays were performed on Gram-negative (Escherichia coli ATCC 25922, E. coli 5, Pseudomonas aeruginosa ATCC 27853, P. aeruginosa ATCC 9027) and Gram-positive (Staphylococcus aureus ATCC 25923, S. aureus ATCC 6538, MRSA (Meticillin-resistant S. aureus) 388, ATCC, American Type Culture Collection) bacterial strains. Microbial suspensions (1.5 × 10^8 CFU/mL; colony forming units (CFU)) corresponding to 0.5 McFarland density obtained from 15 to 18-h bacterial cultures developed on solid media were used. The antimicrobial activity was tested on Mueller–Hinton agar medium.
(§2) The quantitative assay of the antimicrobial activity was performed by the liquid medium microdilution method, in 96-well multi-well plates, to establish the minimal inhibitory concentration (MIC). For this purpose, serial two-fold dilutions of the compounds ranging between 1.000 and 1.95 μg/mL were performed in a 200 μL volume of broth and each well was seeded with 50 μL microbial inoculums. Sterility control (wells containing only culture medium) and culture controls (wells containing culture medium seeded with the microbial inoculum) were used. The influence of the DMSO solvent was also quantified in a series of wells containing DMSO, diluted accordingly with the dilution scheme used for the complexes. The plates were incubated for 24 h at 37 °C, and MIC values were considered as the lowest concentration of the tested compound that inhibited the visible growth of the microbial overnight cultures.
Background: Broth dilution looks for growth in wells or tubes with falling amounts of substance.

The test system of data set [2] is E. coli 5 ESBL. Described as above. The data set is classed as cell-based, Escherichia coli. Particulars: Escherichia coli; E. coli 5 ESBL, 24 h at 37 °C; read-out: MIC. On the procedure: as §1, §2
In data set [3] the test system is P. aeruginosa 27853. Described as above. The data set is classed as cell-based, Pseudomonas aeruginosa. Particulars: Pseudomonas aeruginosa; P. aeruginosa 27853, 24 h at 37 °C; read-out: MIC. On the procedure:
as §1, §2

In data set [4] the test system is P. aeruginosa 9027. The description is as above. In kind it is cell-based, Pseudomonas aeruginosa. The conditions noted are these: Pseudomonas aeruginosa; P. aeruginosa 9027 (multi-drug-resistant), 24 h at 37 °C; read-out: MIC. On the procedure: as §1, §2
For data set [5], the system named is MRSA. The description is as above. In kind it is cell-based, Staphylococcus aureus. Particulars: Staphylococcus aureus, 24 h at 37 °C, read-out: MIC. How it is done:
as §1, §2

For data set [6], the system named is S. aureus 25923. Described as above. In kind it is cell-based, Staphylococcus aureus. Particulars: Staphylococcus aureus; S. aureus 25923, 24 h at 37 °C; read-out: MIC. How it is done:
as §1, §2

Data set [7] relates to S. aureus 6538. Described as above. The data set is classed as cell-based, Staphylococcus aureus. Particulars: Staphylococcus aureus; S. aureus 6538, 24 h at 37 °C; read-out: MIC. On the procedure: as §1, §2
Data set [8] deals with E. coli 25922. As to the kind of experiment: MBEC assay, micro-titer method (biofilm). The data set is classed as cell-based, Escherichia coli. How it is done:
as §1
(§3) The assessment of the complexes’ influence on the microbial ability to colonize an inert substratum with the establishment of the minimal biofilm eradication concentration (MBEC) was performed by the micro-titer method, following previously described protocols. The absorbance at 490 nm was measured with an Apollo LB 911ELISA (Berthold Technologies GmbH & Co. KG, Waltham, MA, USA) reader. All experiments were performed in triplicates.

Data set [9] concerns E. coli 5 ESBL. The data set can be described thus: MBEC assay, micro-titer method (biofilm). The data set is classed as cell-based, Escherichia coli. On the procedure:
as §1, §3

For data set [10], the system named is P. aeruginosa 27853. As to the kind of experiment: MBEC assay, micro-titer method (biofilm). In kind it is cell-based, Pseudomonas aeruginosa. On the procedure:
as §1, §3

The subject of data set [11] is P. aeruginosa 9027. The data set can be described thus: MBEC assay, micro-titer method (biofilm). In kind it is cell-based, Pseudomonas aeruginosa. On the procedure: as §1, §3
Data set [12] deals with MRSA. As to the kind of experiment: MBEC assay, micro-titer method (biofilm). In kind it is cell-based, Staphylococcus aureus. How it is done:
as §1, §3

The test system of data set [13] is S. aureus 25923. As to the kind of experiment: MBEC assay, micro-titer method (biofilm). The data set is classed as cell-based, Staphylococcus aureus. How it is done:
as §1, §3

In data set [14] the test system is S. aureus 6538. The data set can be described thus: MBEC assay, micro-titer method (biofilm). In kind it is cell-based, Staphylococcus aureus. On the procedure: as §1, §3
Data set [15] relates to B16 (melanoma) tumor cells. The data set can be described thus: MTT cell viability assay. In kind it is cell-based, Mouse. The conditions noted are these: any tested concentration (0–25 μg/mL), 24 and 48 h. How it is done:
(§4) The cytotoxicity of ligand and copper(II) complexes was tested on normal BJ cell as well as on B16 (melanoma) tumor cells, which were grown for 48 h in culture medium containing the tested complexes in 0–25 μg/mL concentration range.
(§5) Human fibroblast cells (BJ-ATCC CRL-2522, Manassas, VA, USA) were grown in minimal essential medium (MEM) supplemented with 2 mM L-Glutamine, 10% fetal calf serum (FCS), 100 units/mL of penicillin and 100 µg/mL of streptomycin at 37 °C in a humidified incubator under an atmosphere containing 5% CO2. Mouse melanoma cells (B16-ATCC CRL-6475, Manassas, VA, USA) were grown in DMEM (Dulbecco’s Modified Eagle Medium) supplemented with similar reagents as MEM. All cell cultivation media and reagents were purchased from Biochrom AG (Berlin, Germany) and Sigma-Aldrich (Darmstadt, Germany).
(§6) Cell viability was evaluated using 3-(4,5-dimethylthiazol-2-yl)-2,5-diphenyltetrazolium bromide (MTT) assay, as described previously. First, the cells were seeded in 96-well plates (20,000 cells/well) and cultured for 24 h in medium. After overnight incubation, the medium was changed and the investigated sample in concentration varying from […] was added for 24 h. The negative control was represented by cells cultivated in medium without the investigated compounds. Following incubation, the medium was changed and the MTT solution was added to each well to a final concentration of 1 mg/mL and incubated for additional 4 h, at 37 °C. Finally, the medium was collected and DMSO was used to dissolve the insoluble formazan product. The absorbance of the samples was recorded at 570 nm using a plate reader Mithras 940 (Berthold). The data were corrected for the background and the percentage of viable cells was obtained using the equation:Cell viability = [(A570 of treated cells)/(A570 of untreated cells)] × 100%
(§7) The half-maximal inhibitory concentration (IC50) was determined by fitting the data with a logistical sigmoidal equation using the software Origin 8.1 from Microcal Inc. (Los Angeles, CA, USA).
(Tetrazolium dyes change colour on reduction, which living cells bring about.)

The subject of data set [16] is normal BJ cell (human fibroblast). The data set can be described thus: MTT cell viability assay. In kind it is cell-based. Particulars: any tested concentration (0–25 μg/mL), 24 and 48 h. On the procedure: as §4, §5, §6, §7
The nature of data set [17]: Hemolytic activity (adapted ASTM F 756-00). In kind it is cell-based. The conditions noted are these: human red blood cells, 4 h at 37 °C, threshold 5% (ASTM F 756-00). How it is done:
The hemolytic activity of the compounds was determined using an adapted protocol of ASTM F 756–00 standard based on hemoglobin release from human red blood cells (hRBCs) resulting after cell lyses. Briefly, the blood samples were collected from healthy volunteers, diluted to a concentration of hemoglobin ~10 mg/mL with phosphate buffer saline (PBS) and then incubated with various concentrations of compounds for 4 h at 37 °C. After 4 h, the cells were centrifuged, the supernatant was collected, transferred into 96-well tissue culture plates and mixed with Drabkin reagent, which converts hemoglobin to cyanmethemoglobin (absorption peak at 540 nm). After 15 min, the absorbance of the samples was read at 570 nm using a plate reader. The obtained data was background corrected and used to calculate the hemolytic index as percentage of the hemoglobin released after the treatment with the tested compounds, relative to control samples. The hRBCs in PBS and distilled water were used as negative and positive controls.

The subject of the next data set is B16 cells. As to the kind of experiment: Phalloidin staining and cell imaging (cytoskeleton, nucleus). The data set is classed as cell-based, Mouse. Particulars: 24 h, 6 μg/mL. On the procedure:
(§8) Cytoskeleton actin filaments of BJ and B16 cells were stained with phalloidin-FITC (Sigma-Aldrich, USA) according to the manufacturer’s protocol. Briefly, cells were washed with PBS (5 min, 3 times), fixed for 5 min with 3% paraformaldehyde, washed three times with PBS, permeabilized with 0.1% Triton X-100 in PBS for 15 min, washed three times with PBS, stained with 20 μg mL^−1 phalloidin-FITC at room temperature for 1 h and washed again three times with PBS. Cell nucleus was stained with 8 μM of Hoechst 33342 solution for 10 min, washed three times with PBS and finally, mounted and sealed on glass slides with FluorSave™ Reagent (Merck Millipore, Germany). The fluorescence images were acquired using an Andor DSD2 Confocal Unit (Andor, Ireland), mounted on an epifluorescence microscope, Olympus BX-51 (Olympus, Germany), equipped with a 40x and 100x objective and an appropriate DAPI/Hoechst filter cube (excitation filter 390/40 m, dichroic mirror 405 nm and emission filter 452/45 nm) and GFP/FITC filter cube (excitation filter 466/40 nm, dichroic mirror 488 nm and emission filter 525/54 nm).

The test system of the next data set is BJ cells. The description is as above. The data set is classed as cell-based, Human. Particulars: 24 h, 6 μg/mL. How it is done:
as §8

Regarding `Cc1cc(-c2ccccc2)nc2ncnn12` [pmtp, 5-phenyl-7-methyl-1,2,4-triazolo[1,5-a]pyrimidine], the MIC in the data set with E. coli 25922 [1] turned out to be 3000 µM (≈ 631 µg/mL); with E. coli 5 ESBL [2], 3000 µM (≈ 631 µg/mL); with P. aeruginosa 27853 [3], 3000 µM (≈ 631 µg/mL); in the data set on P. aeruginosa 9027 [4], 3000 µM (≈ 631 µg/mL); in the data set with MRSA [5] it was 6000 µM (≈ 1260 µg/mL); in the data set on S. aureus 25923 [6], 6000 µM (≈ 1260 µg/mL). Moreover, in the data set on S. aureus 6538 [7], the MIC was determined as 3000 µM (≈ 631 µg/mL). The MBEC value in the data set with E. coli 25922 [8] worked out at 6.00 mM; with E. coli 5 ESBL [9], 3.00 mM; in the data set with P. aeruginosa 27853 [10], 3.00 mM; in the data set on P. aeruginosa 9027 [11], 1.50 mM; in the data set on MRSA [12], 6.00 mM; with S. aureus 25923 [13], 6.00 mM. The compound further came in with an MBEC value with S. aureus 6538 [14] of 3.00 mM. The “Effect on viability of B16 cells” value in [15] is given as “did not affect the viability of the two cell lines”. Moreover, in [16], the “Effect on viability of BJ cells” value is reported as “did not affect the viability of the two cell lines”. In [17], this compound displayed a hemolysis at 4 h, 25 µg/mL of 0.61 ± 0.05%. The entries for the “Cell morphology (cytoskeleton and nucleus)” value in the data set on B16 cells and in the data set with BJ cells were “does not alter the morphology of the cells” and “does not alter its morphology”, respectively.

Source of the values: article PMC7504215, “Copper(II) Complexes with Mixed Heterocycle Ligands as Promising Antibacterial and Antitumor Species” (Molecules, 2020).
